T1: human creatine transporter (CRT) (Homo sapiens, UniProt P48029)
T1 construct: gene SLC6A8; full-length wild-type
T1 sequence (P48029 1-635): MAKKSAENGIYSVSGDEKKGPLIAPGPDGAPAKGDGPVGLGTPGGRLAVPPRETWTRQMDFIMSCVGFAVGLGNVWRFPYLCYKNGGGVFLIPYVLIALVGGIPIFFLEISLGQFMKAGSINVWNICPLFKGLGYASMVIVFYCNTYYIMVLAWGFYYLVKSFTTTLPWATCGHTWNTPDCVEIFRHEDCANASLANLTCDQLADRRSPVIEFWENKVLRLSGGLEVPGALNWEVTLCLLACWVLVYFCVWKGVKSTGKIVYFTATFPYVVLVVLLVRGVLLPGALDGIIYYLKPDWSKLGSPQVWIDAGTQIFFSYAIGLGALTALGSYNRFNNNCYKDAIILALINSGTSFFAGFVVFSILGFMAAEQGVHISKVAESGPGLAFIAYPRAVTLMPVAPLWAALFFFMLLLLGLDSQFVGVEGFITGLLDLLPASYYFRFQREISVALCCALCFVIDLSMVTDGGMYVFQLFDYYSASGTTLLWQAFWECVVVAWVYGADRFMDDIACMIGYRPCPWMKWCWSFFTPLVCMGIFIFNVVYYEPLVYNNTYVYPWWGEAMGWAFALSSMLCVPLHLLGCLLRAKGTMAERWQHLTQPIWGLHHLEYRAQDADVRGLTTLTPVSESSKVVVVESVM


Tests used:
[1] = molecular target: T1, human creatine transporter (CRT); assay: cryo-EM structure ([…] Å); IC50 from […]creatine uptake inhibition in HEK293 cells; format: cell-based
[2] = substrate: CN(CC(=O)O)C(=N)N; assay: cells, lysate or membranes; format: cell-based, Homo sapiens; conditions: Na+ and Cl- (Na+[…] and Cl- in the structure) central binding site; Tyr148, Ser417, Ala69, Phe315, Gly73; guanidine group surrounded by Phe68, Tyr148, Phe315; contacts Na+[…]

Row | IC50 [1] [µM] | Molecule | Km [2] [µM]
1 | 53 | N=C(N)NCCC(=O)O [RGX, RGX-202] | –
2 | – | human creatine transporter (CRT) (Homo sapiens) (protein, full-length wild-type) MAKKSAENGIYSVSGDEKKGPLIAPGPDGAPAKGDGPVGLGTPGGRLAVPPRETWTRQMDFIMSCVGFAVGLGNVWRFPYLCYKNGGGVFLIPYVLIALVGGIPIFFLEISLGQFMKAGSINVWNICPLFKGLGYASMVIVFYCNTYYIMVLAWGFYYLVKSFTTTLPWATCGHTWNTPDCVEIFRHEDCANASLANLTCDQLADRRSPVIEFWENKVLRLSGGLEVPGALNWEVTLCLLACWVLVYFCVWKGVKSTGKIVYFTATFPYVVLVVLLVRGVLLPGALDGIIYYLKPDWSKLGSPQVWIDAGTQIFFSYAIGLGALTALGSYNRFNNNCYKDAIILALINSGTSFFAGFVVFSILGFMAAEQGVHISKVAESGPGLAFIAYPRAVTLMPVAPLWAALFFFMLLLLGLDSQFVGVEGFITGLLDLLPASYYFRFQREISVALCCALCFVIDLSMVTDGGMYVFQLFDYYSASGTTLLWQAFWECVVVAWVYGADRFMDDIACMIGYRPCPWMKWCWSFFTPLVCMGIFIFNVVYYEPLVYNNTYVYPWWGEAMGWAFALSSMLCVPLHLLGCLLRAKGTMAERWQHLTQPIWGLHHLEYRAQDADVRGLTTLTPVSESSKVVVVESVM | 106.3
